{"source": "patent US20160310525A1", "about": "“PREPARATION FOR PREVENTION AND/OR TREATMENT OF PERI-IMPLANTITIS” (RLS GLOBAL AB, priority 2013, published 2016)", "origin": "cited, not measured here", "system": "biofilm on titan specimens", "data": [{"smiles": "OCl", "note": "[sodium hypochlorite]", "values": [{"measurement": "antimicrobial effect on biofilm", "result": "effective"}]}]}
